Source: patent publication US12171734B2, “Pathogenic bacteria” (Sporegen Limited, priority 2018, dated 2024)
Converted amounts (≈) assume the structure as drawn. “Also recorded” adds a separate entry of the source. Numbered stars: 1 amine (or outer) side, 2 acyl side, 3 side chain; on linkers, the order of the positions; unused ones are H or OH. Bridge positions count the residues as written; N and C are the ends. Square brackets hold non-standard residues; d marks the D form. Peptide text beside a SMILES is read from it. X1 = CC(C)CCCCCCCCC[C@H](CC(=O)[*:1])O[*:2]; X2 = CCC(C)CCCCCCCCCCC(CC(=O)[*:2])N[*:1]

Legend:
[1] = system: CD630; assay: Microdilution assay of inhibitory activity against C. difficile strain 630; conditions: for activity to CD630 of commercial lipopeptides: commercial (SIGMA) samples, alone or combined
[2] = lipopeptides of B. subtilis; cited from earlier work
[3] = Solubility in water / appearance of solution; assay type: physicochemical
Text: C15 iturin A is an example of a lipopeptide able to form micelles and is water-soluble. The inventors suspect that C15 iturin A may enable other lipopeptides to be solubilised in water and potentially form mixed micelles enabling them to target the bacterial cell. To test this, the inventors mixed water solubilised C15 iturin A with a commercial surfactin (Sigma S3523; derived from B. subtilis and a mixture of C13-C15 surfactins). […] The presence of C15 iturin A enables the solubilisation of […] in water and probably all or many of the other lipopeptides present in or on the cell wall of SG277 and other Bacillus species. The important requirements for activity are the concentration of lipopeptides that are produced (since micelles can only be formed at levels above a critical threshold). The micelles formed are most likely to be mixed micelles (i.e., carrying different lipopeptide species but all carrying C15 iturin A)(at least for B. amyloliquefaciens).

[4] = system: M. tuberculosis H37Rv; assay: MIC by resazurin microtitre assay (REMA); assay type: cell-based; conditions: Mycobacterium tuberculosis, 240 h, read-out: MIC, M. tuberculosis H37Rv
[5] = system: CD630; assay: Bacteriolytic vs bacteriocidal vs bacteriostatic activity on log-phase CD630 cultures (OD600, CFU); assay type: cell-based, C. difficile; conditions: activity normalised; added at log phase
Experimental: Fractions 1-3 were analysed for their ability to inhibit growth of cultures of CD630 by addition of test material at the log phase of cell growth (OD600˜0.3). Test materials were diluted in dH2O to normalise so that each sample to be tested carried the same activity/volume. […] of diluted test material was added to 1 ml of CD630 culture and 0.2 ml removed hourly for OD600 readings.
Optical density (OD600) was measured before and after addition of test material. A decline in OD600 indicates bacteriolytic activity while stalling of the increase in OD600 indicates either bacteriostatic or bacteriocidal growth. On the other hand a decline in CFU/ml indicates both bacteriolytic and/or bacteriocidal activity. (FIGS. 22A and 22B and Table 13).

fengycin
activity to CD630 of commercial lipopeptides [1]: none showed activity

Iturin A
activity to CD630 of commercial lipopeptides [1]: unable to demonstrate any activity | activity to CD630 of commercial lipopeptides ([1]; listed as iturin): none showed activity

CC(C)CCCCCCCCC[C@@H]1CC(=O)N[C@@H](CCC(=O)O)C(=O)N[C@@H](CC(C)C)C(=O)N[C@H](CC(C)C)C(=O)N[C@@H](C(C)C)C(=O)N[C@@H](CC(=O)O)C(=O)N[C@H](CC(C)C)C(=O)N[C@@H](CC(C)C)C(=O)O1 [surfactin, Surfactin] (EL[dL]VD[dL]L; linker N-C via X1)
micelle size [2]: 5-105 nm | solubility in water [3]: not soluble in water | activity against C. difficile (in words) [1]: no activity | activity to CD630 of commercial lipopeptides [1]: unable to demonstrate any activity; also recorded: none showed activity

CO[C@H]1/C=C/O[C@@]2(C)Oc3c(C)c(O)c4c(O)c(c(/C=N/N5CCN(C)CC5)c(O)c4c3C2=O)NC(=O)/C(C)=C\C=C\[C@H](C)[C@H](O)[C@@H](C)[C@@H](O)[C@@H](C)[C@H](OC(C)=O)[C@@H]1C [Rifampicin]
MIC [4]: 0.5 µg/mL (≈ 0.608 µM)

CCC(C)CCCCCCCCCCC1CC(=O)N[C@@H](CC(N)=O)C(=O)N[C@@H](CCC(N)=O)C(=O)N2CCC[C@H]2C(=O)N[C@H](Cc2ccc(O)cc2)C(=O)N[C@H](CC(N)=O)C(=O)N[C@H](CC(N)=O)C(=O)N[C@H](CO)C(=O)N[C@@H](CC(N)=O)C(=O)N1 (some centres unmarked) [mycosubtilin, Mycosubtilin] (cyclo(NQP[dY][dN][dN][dS]N[X2]))
micelle size [2]: 8-18 nm

NNC(=O)c1ccncc1 [Isoniazid]
MIC [4]: 0.25 µg/mL (≈ 1.82 µM)

CC(N)C(=O)NC(C[C@@H]1C=C(Cl)C(=O)CC1)C(=O)O (some centres unmarked) [Chlorotetaine]
Bacteriocidal (cessation of cell growth, CD630 cfu/ml) [5]: bacteriocidal
